Experimental data: PubChem BioAssay AID2060343 (Molecular Pharmacology Branch, DTP, NCI, 2025)

System: 138582-337-R-J1-PDC spheroids with HUVEC/MSC, viability
Test: Anticancer human tumor 138582-337-R-J1-PDC patient-derived Merkel cell tumor cell line growth inhibition [IpAb]
Conditions: for IC50: curve of first compound; for viability, T/C: stronger effect = lower value
Description: Combinatorial screen of targeted agents with ipatasertib and abemaciclib in multi-cell type tumor spheroids
A high-throughput screen of multi-cell type tumor spheroids was designed to identify active combinations of targeted small molecules and ipatasertib or abemaciclib. Complex spheroids include a stromal component modeled by human endothelial cells (HUVEC) and fibroblasts modeled by human mesenchymal stem cells (MSCs). The concentration ranges selected for each drug and investigational agent were based upon clinically achievable concentrations if the clinical Cmax of the agent was known.
Compounds. The drugs and investigational agents: ipatasertib (NSC767898), abemaciclib(NSC768073), selumetinib (NSC741078), trametinib (758246), adavosertib (NSC754352), everolimus (NSC733504), sapanisertib (NSC764658), vemurafenib (NSC761431), venetoclax (NSC766270), copanlisib (NSC809693), apelisib (NSC765974), palbociblib (NSC758247), vemurafenib (NSC761431), dabrafenib (NSC764134), ravoxertinib (NSC781343), BMS-387032 (NSC767048), sotorasib (NSC818433), talazoparib (NSC767125) and afursertib (NSC778305), were obtained from the National Cancer Institute (NCI) Developmental Therapeutics Program Chemical Repository. The FDA-approved anticancer drug set is available from the NCI Developmental Therapeutics Program. […] The stock solutions were prepared in dimethyl sulfoxide (DMSO, Sigma-Aldrich, St. Louis, MO, cat. D2650) at 800-fold the tested concentration and stored at -70 degrees C prior to their use. All drugs and investigational agents were tested over a range starting from a high concentration at or near the clinical Cmax and decreasing in half-log increments. If the clinical Cmax for an agent had not been determined, the highest concentration tested was 10 microM.
NCI60 Cell Culture. NCI60 cell lines were obtained from the NCI Developmental Therapeutics Program Tumor Repository. For each lot of cells, the Repository performed Applied Biosystems AmpFLSTR Identifiler testing with PCR amplification to confirm consistency with the published Identifier STR profile for each cell line. Cells were kept in continuous culture for no more than 20 passages. The optimal seeding densities for each of the cell lines at each time point assessed were determined prior to performing the concentration response studies. Briefly, the NCI60 human tumor lines were grown as monolayers in RPMI 1640 medium supplemented with 10% FBS and 2 mmol/L L-glutamine.
An additional 9 lines were from the NCI60 cell line panel including MDA-MB-231 breast carcinoma, MDA-MB-468 breast carcinoma, MCF7 breast carcinoma, Hs578T breast carcinoma, MALME-3M melanoma, SK-MEL-2 melanoma, SK-OV-3 ovarian carcinoma, DU-145 prostate carcinoma, PC-3 prostate carcinoma, all cell lines along with major genetic alterations are listed on Table 2. Pooled donor human umbilical vein endothelial cells (HUVEC, Lonza, cat. CC-2519) and human mesenchymal stem cells (hMSC, Lonza, cat. PT-2501) were purchased from Lonza (Walkersville, MD).
PDMR cell lines were grown in complete medium (DC medium): Dulbecco's modified Eagle's medium (DMEM)/F12 supplemented with 5% fetal bovine serum (FBS), 2 mM L-glutamine, 100 U/mL penicillin and 100 µg/ml streptomycin, 0.4 µg/ml hydrocortisone, 10 ng/ml epidermal growth factor (EGF) recombinant human protein, 24 µg/mL adenine, and 0.1 mg/mL primocin. During culture from frozen stock vials, PDMR cells were cultured in the same medium containing 10 µM Y-27632 (see Table 3). The PDCs were cultured in complete DMEM/F12 media without 10 microM Y-27632 dihydrochloride for at least two passages prior to the screen. The pooled donor HUVEC and hMSC were cultured in endothelial cell growth medium 2 (PromoCell, Heidelberg, Germany, cat. C-22011) and mesenchymal stem cell growth medium 2 (PromoCell, cat. C-28009), respectively. For all experiments, HUVEC and hMSC were used at passages </=5.
[…]

[1] = second compound 0.1 µM, first compound 0.0316 µM
[2] = second compound 0.1 µM, first compound 0.1 µM
[3] = second compound 0.1 µM, first compound 0.316 µM
[4] = second compound 0.1 µM, first compound 1 µM
[5] = second compound 0.316 µM, first compound 0.0316 µM
[6] = second compound 0.316 µM, first compound 0.1 µM
[7] = second compound 0.316 µM, first compound 0.316 µM
[8] = second compound 0.316 µM, first compound 1 µM
[9] = second compound 1 µM, first compound 0.0316 µM
[10] = second compound 1 µM, first compound 0.1 µM
[11] = second compound 1 µM, first compound 0.316 µM
[12] = second compound 1 µM, first compound 1 µM
[13] = second compound 3.16 µM, first compound 0.0316 µM
[14] = second compound 3.16 µM, first compound 0.1 µM
[15] = second compound 3.16 µM, first compound 0.316 µM
[16] = second compound 3.16 µM, first compound 1 µM
[17] = second compound 10 µM, first compound 0.0316 µM
[18] = second compound 10 µM, first compound 0.1 µM
[19] = second compound 10 µM, first compound 0.316 µM
[20] = second compound 10 µM, first compound 1 µM
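Note: spheroids exposed to compounds for seven days.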
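Throughout, for viability, T/C: 100% = DMSO vehicle control viability.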

Structure (SMILES)	IC50 (second compound 0.1 µM) [nM]	IC50 (second compound 0.316 µM) [nM]	IC50 (second compound 1 µM) [nM]	IC50 (second compound 3.16 µM) [nM]	IC50 (second compound 10 µM) [nM]	viability, T/C [1] [%]	viability, T/C [2] [%]	viability, T/C [3] [%]	viability, T/C [4] [%]	viability, T/C [5] [%]	viability, T/C [6] [%]	viability, T/C [7] [%]	viability, T/C [8] [%]	viability, T/C [9] [%]	viability, T/C [10] [%]	viability, T/C [11] [%]	viability, T/C [12] [%]	viability, T/C [13] [%]	viability, T/C [14] [%]	viability, T/C [15] [%]	other results
COc1c(OCCCN2CCOCC2)ccc2c3n(c(=NC(=O)c4cnc(N)nc4)nc12)CCN3 + CC(C)NCC(C(=O)N1CCN(c2ncnc3c2C(C)CC3O)CC1)c1ccc(Cl)cc1	46.5	27.3	11.8	< 3.16	< 3.16	58.3	32.5	19.8	3.52	49.4	28.9	16.7	2.34	39.3	25.6	13.9	1.91	33.9	21.5	13.9	viability, T/C (second compound 0.1 µM, first compound 0.00316 µM): 81.3%; viability, T/C (second compound 0.1 µM, first compound 0.01 µM): 74.2%; viability, T/C (second compound 0.316 µM, first compound 0.00316 µM): 74.7%; viability, T/C (second compound 0.316 µM, first compound 0.01 µM): 63%; viability, T/C (second compound 1 µM, first compound 0.00316 µM): 59.3%; viability, T/C (second compound 1 µM, first compound 0.01 µM): 53%; viability, T/C (second compound 3.16 µM, first compound 0.00316 µM): 46.8%; viability, T/C (second compound 3.16 µM, first compound 0.01 µM): 41.7%; viability, T/C [16]: 1.61%; viability, T/C (second compound 10 µM, first compound 0.00316 µM): 35.6%; viability, T/C (second compound 10 µM, first compound 0.01 µM): 31.9%; viability, T/C [17]: 24.8%; viability, T/C [18]: 16.3%; viability, T/C [19]: 6.62%; viability, T/C [20]: 1.13%
Cc1nc(NC(=O)N2CCCC2C(N)=O)sc1-c1ccnc(C(C)(C)C(F)(F)F)c1 (stereo not given) + CC(C)NCC(C(=O)N1CCN(c2ncnc3c2C(C)CC3O)CC1)c1ccc(Cl)cc1	1490	961	704	< 31.6	< 31.6	93.4	77.3	67.5	52.8	81.3	71.7	63.1	42.7	67.2	60.4	59.5	43.5	49.9	43.9	44.9	viability, T/C (second compound 0.1 µM, first compound 3.16 µM): 47.6%; viability, T/C (second compound 0.1 µM, first compound 10 µM): 22.7%; viability, T/C (second compound 0.316 µM, first compound 3.16 µM): 45.7%; viability, T/C (second compound 0.316 µM, first compound 10 µM): 16.4%; viability, T/C (second compound 1 µM, first compound 3.16 µM): 36.4%; viability, T/C (second compound 1 µM, first compound 10 µM): 14.2%; viability, T/C [16]: 35.7%; viability, T/C (second compound 3.16 µM, first compound 3.16 µM): 27.1%; viability, T/C (second compound 3.16 µM, first compound 10 µM): 5.2%; viability, T/C [17]: 40.5%; viability, T/C [18]: 40%; viability, T/C [19]: 32.9%; viability, T/C [20]: 25.7%; viability, T/C (second compound 10 µM, first compound 3.16 µM): 15.2%; viability, T/C (second compound 10 µM, first compound 10 µM): 1.06%
